# Data: patent US20240360148A1 (SUVALENT THERAPEUTICS, INC., priority 2021, published 2024)
# Molecular target: SAE1 (Homo sapiens (Human), UniProt Q9UBE0+Q9UBT2)
# Experiment: SAE High Throughput Biochemical Assay (HTRF), 15 min preincubation
# Settings: read-out: 15 min preincubation HTRF IC50 (μM) Ave, SAE1 12.5 nM, ATP 100 μM
# Experimental: Assay buffer was prepared [50 mM HEPES, pH 7.5, 0.1% BSA and 10 mM MgCl2] as was the Stop Buffer [100 mM HEPES, pH 7.5, 0.05% Tween20, and 410 mM KF]. The 2×Reaction Buffer [80 nM SUMO-GST, 80 nM UBC9-His, 200 μM ATP and diluted in Assay Buffer] and Antibody Reaction Mix [13.34 nM anti-GSTXL665, 1.66 nM anti-His EuK and Diluted in Stop Buffer] were also prepared. Compounds were dissolved at 200×in DMSO in a 384-well plate. Serial dilutions were performed in DMSO for each compound, and then each concentration was diluted another 50-fold in Assay Buffer, to 4× the final concentration. 2.5 μL of each concentration was transferred into its own well in a 384-well plate. SAE1 was then diluted to 4× in Assay Buffer, and 2.5 μL of 4×SAE1 was mixed into each compound-containing well. After incubating for 15 minutes at RT, 5 μL of 2×Reaction Buffer was mixed into every well. Then after another 45 minutes at RT, 10 μL of Antibody Reaction Mix was added and mixed into every well. This plate was then read on an HTRF-compatible plate reader after 2 hours at RT, and again after sitting at RT overnight. [Final Component Concentrations: SAE1: 12.5 nM; SUMO-GST: 40 nM; UBC9-His: 40 nM; Anti-GST-XL665: 6.67 nM; Anti-His-EuK: 0.83 nM; and ATP: 100 μM] Alternatively, the compounds are tested at a single concentration of 25 micromolar and the percent of control is measured.
# SAE1, sequence (Q9UBE0 whole entry): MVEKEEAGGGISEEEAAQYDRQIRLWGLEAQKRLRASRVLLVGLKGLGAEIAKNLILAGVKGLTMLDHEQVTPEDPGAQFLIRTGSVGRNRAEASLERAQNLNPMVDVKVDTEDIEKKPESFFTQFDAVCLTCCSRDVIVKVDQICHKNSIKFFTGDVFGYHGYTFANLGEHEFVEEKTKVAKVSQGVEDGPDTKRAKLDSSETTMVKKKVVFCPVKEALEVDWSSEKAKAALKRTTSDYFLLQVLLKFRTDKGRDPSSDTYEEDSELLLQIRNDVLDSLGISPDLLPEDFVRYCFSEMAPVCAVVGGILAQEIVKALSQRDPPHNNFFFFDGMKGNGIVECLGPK
# SAE1, sequence (Q9UBT2 whole entry): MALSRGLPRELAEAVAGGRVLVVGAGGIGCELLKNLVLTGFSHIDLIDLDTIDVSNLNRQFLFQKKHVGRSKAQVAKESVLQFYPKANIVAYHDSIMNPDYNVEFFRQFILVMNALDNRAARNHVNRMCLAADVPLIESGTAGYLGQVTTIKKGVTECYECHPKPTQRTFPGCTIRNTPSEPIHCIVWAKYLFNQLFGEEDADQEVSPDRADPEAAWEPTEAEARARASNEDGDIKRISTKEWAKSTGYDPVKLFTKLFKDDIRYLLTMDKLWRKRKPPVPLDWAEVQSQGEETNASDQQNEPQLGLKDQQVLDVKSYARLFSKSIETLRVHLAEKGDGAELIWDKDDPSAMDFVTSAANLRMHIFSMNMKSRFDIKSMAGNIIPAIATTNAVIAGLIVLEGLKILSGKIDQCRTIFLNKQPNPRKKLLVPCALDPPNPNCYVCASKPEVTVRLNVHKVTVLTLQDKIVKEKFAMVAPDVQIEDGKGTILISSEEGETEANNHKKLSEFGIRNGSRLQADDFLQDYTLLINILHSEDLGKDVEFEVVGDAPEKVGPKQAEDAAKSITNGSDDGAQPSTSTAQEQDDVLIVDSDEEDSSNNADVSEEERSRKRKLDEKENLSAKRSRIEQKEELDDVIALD
row,Compound,IC50
1,"CN(C)C/C=C/C(=O)N1Cc2sc(C#N)cc2[C@H](c2ccccc2-c2cn(CC(=O)O)nc2C(F)(F)F)C1 [Example 172, (S, E)-2-(4-(2-(2-Cyano-6-(4-(dimethylamino)but-2-enoyl)-4,5,6,7-tetrahydrothieno[2,3-c]pyridin-4-yl)phenyl)-3-(trifluoromethyl)-1H pyrazol-1-yl)acetic acid]",21.1 µM
2,"CCn1cc(-c2nc(N)ccc2C2CN(C(=O)/C=C/CN(C)C)Cc3sc(C#N)cc32)c(C(F)(F)F)n1 (stereo not shown) [Example 192, (E)-4-(6-Amino-2-(1-ethyl-3-(trifluoromethyl)-1 H-pyrazol-4-yl)pyridin-3-yl)-6-(4-(dimethylamino)but-2-enoyl)-4,5,6,7-tetrahydrothieno[2,3-c]pyridine-2-carbonitrile]",> 25 µM
3,"CN(C)C/C=C/C(=O)N1Cc2sc(C#N)cc2[C@H](c2ccccc2-c2cn(-c3ncccc3F)nc2C(F)(F)F)C1 [Example 158, (S,E)-6-(4-(Dimethylamino)but-2-enoyl)-4-(2-(1-(3-fluoropyridin-2-yl)-3-(trifluoromethyl)-1H pyrazol-4-yl)phenyl)-4,5,6,7-tetrahydrothieno[2,3-c]pyridine-2-carbonitrile]",6.37 µM
4,"CCn1cc(-c2ccccc2[C@@H]2CN(C(=O)/C=C/C3(N)CC3)Cc3sc(C#N)cc32)c(C(F)(F)F)n1 [Example 109, (S, E)-6-(3-(1-Aminocyclopropyl)acryloyl)-4-(2-(1-ethyl-3-(trifluoromethyl)-1 H-pyrazol-4-yl)phenyl)-4,5,6,7-tetrahydrothieno[2,3-c]pyridine-2-carbonitrile]",26.5 µM
5,"CN[C@@H](C)/C=C/C(=O)N1Cc2sc(C#N)c(C)c2[C@H](c2cccc(F)c2-c2cn(C)nc2C(F)(F)F)C1 [Example 219, (S)-4-(3-fluoro-2-(1-methyl-3-(trifluoromethyl)-1 H-pyrazol-4-yl)phenyl)-3-methyl-6-((S, E)-4-(methylamino)pent-2-enoyl)-4,5,6,7-tetrahydrothieno[2,3-c]pyridine-2-carbonitrile]",1.01 µM
6,"CCn1cc(-c2c(F)cccc2[C@@H]2CN(C(=O)/C=C/[C@@H](C)NC)Cc3sc(C#N)cc32)c(C(F)(F)F)n1 [Example 88, (S)-4-(2-(1-Ethyl-3-(trifluoromethyl)-1H pyrazol-4-yl)-3-fluorophenyl)-6-((R,E)-4-(methylamino)pent-2-enoyl)-4,5,6,7-tetrahydrothieno[2,3-c]pyridine-2-carbonitrile]",2.7 µM
7,"CCn1cc(-c2ccccc2[C@@H]2CN(C(=O)/C=C/CN(C)Cc3ccccc3)Cc3sc(C#N)cc32)c(C(F)(F)F)n1 [Example 33, (S, E)-6-(4-(benzyl(methyl)amino)but-2-enoyl)-4-(2-(1-ethyl-3-(trifluoromethyl)-1 H-pyrazol-4-yl)phenyl)-4,5,6,7-tetrahydrothieno[2,3-c]pyridine-2-carbonitrile]",8.44 µM
8,"CCn1cc(-c2c(F)cccc2[C@@H]2CN(C(=O)/C=C/[C@@H](C)NC)Cc3sc(C#N)c(C)c32)c(C(F)(F)F)n1 [Example 218, (S)-4-(2-(1-ethyl-3-(trifluoromethyl)-1 H-pyrazol-4-yl)-3-fluorophenyl)-3-methyl-6-((R, E)-4-(methylamino)pent-2-enoyl)-4,5,6,7-tetrahydrothieno[2,3-c]pyridine-2-carbonitrile]",0.81 µM
9,"CCn1cc(-c2ccccc2[C@@H]2CN(C(=O)/C=C/CN3CCC[C@H]3C(=O)O)Cc3sc(C#N)cc32)c(C(F)(F)F)n1 [Example 6, ((E)-4-((S)-2-cyano-4-(2-(1-ethyl-3-(trifluoromethyl)-1 H-pyrazol-4-yl)phenyl)-4,7-dihydrothieno[2,3-c]pyridin-6(5H)-yl)-4-oxobut-2-en-1-yl)proline]",7.43 µM
10,"CCn1cc(-c2ccccc2[C@@H]2CN(C(=O)/C=C/[C@H](COC)NC)Cc3sc(C#N)cc32)c(C(F)(F)F)n1 [Example 86, (S)-4-(2-(1-Ethyl-3-(trifluoromethyl)-1 H-pyrazol-4-yl)phenyl)-6-((R, E)-5-methoxy-4-(methylamino)pent-2-enoyl)-4,5,6,7-tetrahydrothieno[2,3-c]pyridine-2-carbonitrile]",9.1 µM
11,"CCn1cc(-c2ccccc2[C@@H]2CN(C(=O)/C=C/C(C)NC)Cc3sc(C#N)cc32)c(C(F)(F)F)n1 (stereo partly drawn) [Example 77, (4S)-4-(2-(1-Ethyl-3-(trifluoromethyl)-1 H pyrazol-4-yl)phenyl)-6-((E)-4-(methylamino)pent-2-enoyl)-4,5,6,7-tetrahydrothieno[2,3-c]pyridine-2-carbonitrile]",9.55 µM
12,"CCn1cc(-c2cc(C(F)F)ccc2C2CN(C(=O)/C=C/CN(C)C)Cc3sc(C#N)cc32)c(C(F)(F)F)n1 (stereo not shown) [Example 188, (E)-4-(4-(Difluoromethyl)-2-(1-ethyl-3-(trifluoromethyl)-1 H-pyrazol-4-yl)phenyl)-6-(4-(dimethylamino)but-2-enoyl)-4,5,6,7-tetrahydrothieno[2,3-c]pyridine-2-carbonitrile]",18 µM
13,"CCn1cc(-c2ccccc2[C@@H]2CN(C(=O)/C=C/C(C)(C)NC)Cc3sc(C#N)cc32)c(C(F)(F)F)n1 [Example 38, (S, E)-4-(2-(1-ethyl-3-(trifluoromethyl)-1 H-pyrazol-4-yl)phenyl)-6-(4-methyl-4-(methylamino)pent-2-enoyl)-4,5,6,7-tetrahydrothieno[2,3-c]pyridine-2-carbonitrile]",> 25 µM
14,"CCn1cc(-c2ccccc2C2CN(C(=O)/C=C/CN(C)C)Cc3sc(C#N)c(F)c32)c(C(F)(F)F)n1 (stereo not shown) [Example 213, (E)-6-(4-(dimethylamino)but-2-enoyl)-4-(2-(1-ethyl-3-(trifluoromethyl)-1 H pyrazol-4-yl)phenyl)-3-fluoro-4,5,6,7-tetrahydrothieno[2,3-c]pyridine-2-carbonitrile]",8.81 µM
15,"CCn1cc(-c2ccccc2[C@@H]2CN(C(=O)/C=C/C(C)(C)N)Cc3sc(C#N)cc32)c(C(F)(F)F)n1 [Example 37, (S, E)-6-(4-amino-4-methylpent-2-enoyl)-4-(2-(1-ethyl-3-(trifluoromethyl)-1 H-pyrazol-4-yl)phenyl)-4,5,6,7-tetrahydrothieno[2,3-c]pyridine-2-carbonitrile]",> 25 µM
16,"CCn1cc(-c2ccccc2[C@@H]2CN(C(=O)C#CC3CCCNC3)Cc3sc(C#N)cc32)c(C(F)(F)F)n1 (stereo partly drawn) [Example 145, (4S)-4-(2-(1-Ethyl-3-(trifluoromethyl)-1 H-pyrazol-4-yl)phenyl)-6-(3-(piperidin-3-yl)propioloyl)-4,5,6,7-tetrahydrothieno[2,3-c]pyridine-2-carbonitrile]",5.62 µM
17,"CCn1cc(-c2ccccc2[C@@H]2CN(C(=O)/C=C/CNC3(C)CCOC3)Cc3sc(C#N)cc32)c(C(F)(F)F)n1 (stereo partly drawn) [Example 97, (4S)-4-(2-(1-Ethyl-3-(trifluoromethyl)-1 H-pyrazol-4-yl)phenyl)-6-((E)-4-((3-methyltetrahydrofuran-3-yl)amino)but-2-enoyl)-4,5,6,7-tetrahydrothieno[2,3-c]pyridine-2-carbonitrile]",2.76 µM
18,"C=C(CO)C(=O)N1Cc2sc(C#N)cc2[C@H](c2ccccc2-c2cn(CC)nc2C(F)(F)F)C1 [Example 62, (S)-4-(2-(1-Ethyl-3-(trifluoromethyl)-1 H pyrazol-4-yl)phenyl)-6-(2-(hydroxymethyl)acryloyl)-4,5,6,7-tetrahydrothieno[2,3-c]pyridine-2-carbonitrile]",> 25 µM
19,"CCn1cc(-c2ccccc2[C@@H]2CN(C(=O)/C=C/[C@H]3CCC(C)(C)N3)Cc3sc(C#N)cc32)c(C(F)(F)F)n1 [Example 78, (S)-6-((E)-3-((R)-5,5-Dimethylpyrrolidin-2-yl)acryloyl)-4-(2-(1-ethyl-3-(trifluoromethyl)-1H pyrazol-4-yl)phenyl)-4,5,6,7-tetrahydrothieno[2,3-c]pyridine-2-carbonitrile]",6 µM
20,"CCn1cc(-c2ccccc2[C@@H]2CN(C(=O)/C=C/C3COCCN3)Cc3sc(C#N)cc32)c(C(F)(F)F)n1 (stereo partly drawn) [Example 76, (4S)-4-(2-(1-Ethyl-3-(trifluoromethyl)-1 H-pyrazol-4-yl)phenyl)-6-((E)-3-(morpholin-3-yl)acryloyl)-4,5,6,7-tetrahydrothieno[2,3-c]pyridine-2-carbonitrile]",14.7 µM
21,"CN(C)C/C=C/C(=O)N1Cc2sc(C#N)cc2[C@H](c2ccccc2-c2cn(CC(N)=O)nc2C(F)(F)F)C1 [Example 162, (S, E)-2-(4-(2-(2-Cyano-6-(4-(dimethylamino)but-2-enoyl)-4,5,6,7-tetrahydrothieno[2,3-c]pyridin-4-yl)phenyl)-3-(trifluoromethyl)-1 H-pyrazol-1-yl)acetamide]",11.6 µM
22,"CNC(=O)C(C)n1cc(-c2ccccc2[C@@H]2CN(C(=O)/C=C/CN(C)C)Cc3sc(C#N)cc32)c(C(F)(F)F)n1 (stereo partly drawn) [Example 161, 2-(4-(2-((S)-2-Cyano-6-((E)-4-(dimethylamino)but-2-enoyl)-4,5,6,7-tetrahydrothieno[2,3-c]pyridin-4-yl)phenyl)-3-(trifluoromethyl)-1 H-pyrazol-1-yl)-N-methylpropanamide]",15.8 µM
